The text below walks through data of patent US8278345B2, “Inhibitors of glutaminyl cyclase” (Probiodrug AG, priority 2006, dated 2012).

The target in this assay is hQC (Homo sapiens, UniProt Q16769). Nature of the assay: Inhibitor assay for glutaminyl cyclase activity (fluorometric, H-Gln-βNA / H-Gln-AMC). Format: biochemical. On the procedure:
All measurements were performed with a BioAssay Reader HTS-7000Plus for microplates (Perkin Elmer) at 30° C. QC activity was evaluated fluorometrically using H-Gln-βNA. The samples consisted of 0.2 mM fluorogenic substrate, 0.25 U pyroglutamyl aminopeptidase (Unizyme, Hørsholm, Denmark) in 0.2 M Tris/HCl, pH 8.0 containing 20 mM EDTA and an appropriately diluted aliquot of QC in a final volume of 250 μl. Excitation/emission wavelengths were 320/410 nm. The assay reactions were initiated by addition of glutaminyl cyclase. QC activity was determined from a standard curve of β-naphthylamine under assay conditions. One unit is defined as the amount of QC catalyzing the formation of 1 μmol pGlu-βNA from H-Gln-βNA per minute under the described conditions.
In a second fluorometric assay, QC activity was determined using H-Gln-AMC as substrate. Reactions were carried out at 30° C. utilizing the NOVOStar reader for microplates (BMG labtechnologies). The samples consisted of varying concentrations of the fluorogenic substrate, 0.1 U pyroglutamyl aminopeptidase (Qiagen) in 0.05 M Tris/HCl, pH 8.0 containing 5 mM EDTA and an appropriately diluted aliquot of QC in a final volume of 250 μl. Excitation/emission wavelengths were 380/460 nm. The assay reactions were initiated by addition of glutaminyl cyclase. QC activity was determined from a standard curve of 7-amino-4-methylcoumarin under assay conditions. The kinetic data were evaluated using GraFit sofware.
For inhibitor testing, the sample composition was the same as described above, except of the putative inhibitory compound added. For a rapid test of QC-inhibition, samples contained 4 mM of the respective inhibitor and a substrate concentration at 1 KM. For detailed investigations of the inhibition and determination of Ki-values, influence of the inhibitor on the auxiliary enzymes was investigated first. In every case, there was no influence on either enzyme detected, thus enabling the reliable determination of the QC inhibition. The inhibitory constant was evaluated by fitting the set of progress curves to the general equation for competitive inhibition using GraFit software.

Read-outs that look alike come from different tables or passages of the source.

Chain of hQC (Q16769 29-361): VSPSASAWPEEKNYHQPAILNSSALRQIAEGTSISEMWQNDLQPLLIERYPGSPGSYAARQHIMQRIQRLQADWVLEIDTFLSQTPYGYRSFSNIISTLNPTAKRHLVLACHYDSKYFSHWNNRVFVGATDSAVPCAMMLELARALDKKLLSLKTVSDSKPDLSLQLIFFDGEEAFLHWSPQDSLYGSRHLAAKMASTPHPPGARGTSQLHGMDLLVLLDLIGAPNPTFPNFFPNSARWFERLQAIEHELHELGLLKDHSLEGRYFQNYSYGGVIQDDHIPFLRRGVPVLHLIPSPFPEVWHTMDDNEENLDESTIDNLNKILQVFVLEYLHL

Turning to `CC(C)/C=C/C1C(c2ccccc2)=C(O)C(=O)N1CCCn1ccnc1` (stereo not shown) [Compound 83, 3-Hydroxy-1-(3-imidazol-1-yl-propyl)-5-(3-methyl-but-1-enyl)-4-phenyl-1,5-dihydro-pyrrol-2-one], the IC50 (as a rule, the point on the concentration scale where inhibition reaches its midpoint) (read-out: IC50) turned out to be 6700 nM.

`CC(=O)C1=C(O)C(=O)N(c2ccc3[nH]cnc3c2)C1c1cc(F)cc(F)c1F` (stereo not shown) [Compound 261, 4-Acetyl-1-(1H-benzoimidazol-5-yl)-3-hydroxy-5-(2,3,5-trifluoro-phenyl)-1,5-dihydro-pyrrol-2-one]: the IC50 (read-out: IC50) came to 310 nM.

Consider `CC1=C(O)C(=O)N(c2ccc3[nH]cnc3c2)C1c1csc2ccccc12` (stereo not shown) [Compound 347, 5-Benzo[b]thiophen-3-yl-1-(1H-benzoimidazol-5-yl)-3-hydroxy-4-methyl-1,5-dihydro-pyrrol-2-one], for which the IC50 (read-out: IC50) came out at 3100 nM.

On to `O=C1C(O)=C(c2ccc(O)cc2)C(c2cc(Cl)cc(Cl)c2O)N1CCCn1ccnc1` (stereo not shown) [Compound 147, 5-(3,5-Dichloro-2-hydroxy-phenyl)-3-hydroxy-4-(4-hydroxy-phenyl)-1-(3-imidazol-1-yl-propyl)-1,5-dihydro-pyrrol-2-one], for which, under “read-out: IC50”, the IC50 is 40 nM.

Turning to `Cc1cc(C2C(c3ccc(O)cc3)=C(O)C(=O)N2c2ccc3[nH]cnc3c2)oc1C` (stereo not shown) [Compound 271, 1-(1H-Benzoimidazol-5-yl)-5-(4,5-dimethyl-furan-2-yl)-3-hydroxy-4-(4-hydroxy-phenyl)-1,5-dihydro-pyrrol-2-one], the IC50 (read-out: IC50) was determined as 1390 nM.

Turning to `CCCC1C(c2ccccc2)=C(O)C(=O)N1CCCn1ccnc1` (stereo not shown) [Compound 80, 3-Hydroxy-1-(3-imidazol-1-yl-propyl)-4-phenyl-5-propyl-1,5-dihydro-pyrrol-2-one], under “read-out: IC50”, the IC50 is 400 nM.

For the compound `O=C1C(O)=C(c2c[nH]c3ccccc23)C(C2=CCCCC2)N1CCCn1ccnc1` (stereo not shown) [Compound 129, 5-Cyclohex-1-enyl-3-hydroxy-1-(3-imidazol-1-yl-propyl)-4-(1H-indol-3-yl)-1,5-dihydro-pyrrol-2-one], the IC50 (read-out: IC50) came out at 400 nM.

As to `CCC1C(c2c[nH]c3ccccc23)=C(O)C(=O)N1CCCn1ccnc1` (stereo not shown) [Compound 142, 5-Ethyl-3-hydroxy-1-(3-imidazol-1-yl-propyl)-4-(1H-indol-3-yl)-1,5-dihydro-pyrrol-2-one], where the note is “read-out: IC50”, the IC50 is 400 nM.

Regarding `CC(C)CC(=O)C1=C(O)C(=O)N(c2ccc3[nH]cnc3c2)C1c1ccc(-c2ccccn2)cc1` (stereo not shown) [Compound 455, 1-(1H-Benzoimidazol-5-yl)-3-hydroxy-4-(3-methyl-butyryl)-5-(4-pyridin-2-yl-phenyl)-1,5-dihydro-pyrrol-2-one], the IC50 (read-out: IC50) was 130 nM.

Consider `CC(C)/C=C/C1C(c2cccc(O)c2)=C(O)C(=O)N1CCCn1ccnc1` (stereo not shown) [Compound 10, 3-Hydroxy-4-(3-hydroxy-phenyl)-1-(3-imidazol-1-yl-propyl)-5-(3-methyl-but-1-enyl)-1,5-dihydro-pyrrol-2-one], for which the IC50 (read-out: IC50) was 5800 nM.

`CC(C)CC(=O)C1=C(O)C(=O)N(c2ccc3[nH]cnc3c2)C1c1cn(C)c2ccccc12` (stereo not shown) [Compound 278, 1-(1H-Benzoimidazol-5-yl)-3-hydroxy-4-(3-methyl-butyryl)-5-(1-methyl-1H-indol-3-yl)-1,5-dihydro-pyrrol-2-one]: for the setting “read-out: IC50”, the IC50 turned out to be 5350 nM.

Consider `CC1=C(O)C(=O)N(c2ccc3[nH]cnc3c2)C1c1ccc(Cl)c(C(F)(F)F)c1` (stereo not shown) [Compound 460, 1-(1H-Benzoimidazol-5-yl)-5-(4-chloro-3-trifluoromethyl-phenyl)-3-hydroxy-4-methyl-1,5-dihydro-pyrrol-2-one], for which the IC50 (read-out: IC50) came to 9850 nM.

With `CC(C)C1=C(O)C(=O)N(CCCn2ccnc2)C1c1ccccc1O` (stereo not shown) [Compound 60, 3-Hydroxy-5-(2-hydroxy-phenyl)-1-(3-imidazol-1-yl-propyl)-4-isopropyl-1,5-dihydro-pyrrol-2-one], the IC50 (read-out: IC50) was determined as 9400 nM.

Turning to `CCCC(=O)C1=C(O)C(=O)N(c2ccc3[nH]cnc3c2)C1c1ccc[nH]1` (stereo not shown) [Compound 355, 1-(1H-Benzoimidazol-5-yl)-3-butyryl-4-hydroxy-1,2-dihydro-1′H-[2,2′]bipyrrolyl-5-one], the IC50 (read-out: IC50) was found to be 8680 nM.

As for `CCCCCC1=C(O)C(=O)N(CCCn2ccnc2)C1c1cc(Cl)cc(Cl)c1O` (stereo not shown) [Compound 183, 5-(3,5-Dichloro-2-hydroxy-phenyl)-3-hydroxy-1-(3-imidazol-1-yl-propyl)-4-pentyl-1,5-dihydro-pyrrol-2-one], the IC50 (read-out: IC50) was 40 nM.

For `CCCCCC1=C(O)C(=O)N(CCCn2ccnc2)C1CC` (stereo not shown) [Compound 215, 5-Ethyl-3-hydroxy-1-(3-imidazol-1-yl-propyl)-4-pentyl-1,5-dihydro-pyrrol-2-one], the IC50 (read-out: IC50) stood at 1300 nM.

In the case of `CCCCCC1=C(O)C(=O)N(CCCn2ccnc2)C1c1ccco1` (stereo not shown) [Compound 213, 5-Furan-2-yl-3-hydroxy-1-(3-imidazol-1-yl-propyl)-4-pentyl-1,5-dihydro-pyrrol-2-one], the IC50 runs as follows: (compound from preparative synthesis, purified, read-out: IC50 hQC) 1310 nM; (read-out: IC50) 40 nM.

Take `CC1=C(O)C(=O)N(c2ccc3[nH]cnc3c2)C1c1ccc(C(=O)O)o1` (stereo not shown) [Compound 399, 5-[1-(1H-Benzoimidazol-5-yl)-4-hydroxy-3-methyl-5-oxo-2,5-dihydro-1H-pyrrol-2-yl]-furan-2-carboxylic acid]: the IC50 (read-out: IC50) stood at 1390 nM.

In the case of `Cc1[nH]c2ccccc2c1C1C(c2c[nH]c3ccccc23)=C(O)C(=O)N1c1ccc2[nH]cnc2c1` (stereo not shown) [Compound 285, 1-(1H-Benzoimidazol-5-yl)-3-hydroxy-4-(1H-indol-3-yl)-5-(2-methyl-1H-indol-3-yl)-1,5-dihydro-pyrrol-2-one], the IC50 (read-out: IC50) was determined as 5710 nM.

With `CCC/C=C/C1C(c2ccccc2)=C(O)C(=O)N1CCCn1ccnc1` (stereo not shown) [Compound 78, 3-Hydroxy-1-(3-imidazol-1-yl-propyl)-5-(pent-1-enyl)-4-phenyl-1,5-dihydro-pyrrol-2-one], the IC50 (read-out: IC50) is 40 nM.

As for `O=C1C(O)=C(c2ccc(O)cc2)C(c2ccccc2)N1CCCn1ccnc1` (stereo not shown) [Compound 162, 3-Hydroxy-4-(4-hydroxy-phenyl)-1-(3-imidazol-1-yl-propyl)-5-phenyl-1,5-dihydro-pyrrol-2-one], the IC50 (read-out: IC50) was determined as 40 nM.

Take `Cc1ccc(C2C(C(C)C)=C(O)C(=O)N2CCCn2ccnc2)o1` (stereo not shown) [Compound 57, 3-Hydroxy-1-(3-imidazol-1-yl-propyl)-4-isopropyl-5-(5-methyl-furan-2-yl)-1,5-dihydro-pyrrol-2-one]: the IC50 (read-out: IC50) amounted to 1300 nM.

Take `CC(=O)C1=C(O)C(=O)N(c2ccc3[nH]cnc3c2)C1c1ccc(CO)o1` (stereo not shown) [Compound 352, 4-Acetyl-1-(1H-benzoimidazol-5-yl)-3-hydroxy-5-(5-hydroxymethyl-furan-2-yl)-1,5-dihydro-pyrrol-2-one]: the IC50 (read-out: IC50) was found to be 4 nM.

`O=C1C(O)=C(F)C(c2ccccc2F)N1c1ccc2[nH]cnc2c1` (stereo not shown) [Compound 462, 1-(1H-Benzoimidazol-5-yl)-4-fluoro-5-(2-fluoro-phenyl)-3-hydroxy-1,5-dihydro-pyrrol-2-one]: the IC50 (read-out: IC50) amounted to 4990 nM.

`Cc1[nH]c2ccccc2c1C1C(C(=O)C2CC2)=C(O)C(=O)N1c1ccc2[nH]cnc2c1` (stereo not shown) [Compound 298, 1-(1H-Benzoimidazol-5-yl)-4-cyclopropanecarbonyl-3-hydroxy-5-(2-methyl-1H-indol-3-yl)-1,5-dihydro-pyrrol-2-one]: the IC50 (read-out: IC50) came to 7870 nM.

As to `O=C1C(O)=C(c2c[nH]c3ccccc23)C(c2ccc3[nH]ccc3c2)N1CCCn1ccnc1` (stereo not shown) [Compound 120, 3-Hydroxy-1-(3-imidazol-1-yl-propyl)-5-(1H-indol-5-yl)-4-(1H-indol-3-yl)-1,5-dihydro-pyrrol-2-one], where the note is “read-out: IC50”, the IC50 is 40 nM.

For `Cc1cc(C2C(C(=O)C3CC3)=C(O)C(=O)N2c2ccc3[nH]cnc3c2)cc(C)c1O` (stereo not shown) [Compound 342, 1-(1H-Benzoimidazol-5-yl)-4-cyclopropanecarbonyl-3-hydroxy-5-(4-hydroxy-3,5-dimethyl-phenyl)-1,5-dihydro-pyrrol-2-one], where the note is “read-out: IC50”, the IC50 came out at 310 nM.

On to `CC(C)C1=C(O)C(=O)N(CCCn2ccnc2)C1c1ccncc1` (stereo not shown) [Compound 70, 3-Hydroxy-1-(3-imidazol-1-yl-propyl)-4-isopropyl-5-pyridin-4-yl-1,5-dihydro-pyrrol-2-one], for which the IC50 (read-out: IC50) turned out to be 4900 nM.

Consider `CC(C)/C=C/C1C(c2c[nH]c3ccccc23)=C(O)C(=O)N1CCCn1ccnc1` (stereo not shown) [Compound 118, 3-Hydroxy-1-(3-imidazol-1-yl-propyl)-4-(1H-indol-3-yl)-5-(3-methyl-but-1-enyl)-1,5-dihydro-pyrrol-2-one], for which, for the setting “read-out: IC50”, the IC50 turned out to be 1300 nM.

As for `Cc1ccc2occ(C3C(c4c[nH]c5ccccc45)=C(O)C(=O)N3c3ccc4[nH]cnc4c3)c(=O)c2c1` (stereo not shown) [Compound 346, 1-(1H-Benzoimidazol-5-yl)-3-hydroxy-4-(1H-indol-3-yl)-5-(6-methyl-4-oxo-4H-chromen-3-yl)-1,5-dihydro-pyrrol-2-one], the IC50 (read-out: IC50) was determined as 4990 nM.
